Experimental data reported in PMC4728427, “Mechanism of allosteric activation of TMEM16A/ANO1 channels by a commonly used chloride channel blocker” (British Journal of Pharmacology, 2016).

Assays:
Mouse TMEM16A [1] = biological target: T1, Mouse TMEM16A (Mus musculus, UniProt Q8BHY3); assay: Stationary noise analysis of whole-cell TMEM16A currents; assay type: cell-based; conditions: +70 mV, 12.5 μM [Ca2+]i; for P o: control 0.78 ± 0.02
T1 construct: expressed in transfected cells; host or cells: HEK-293T
T1 sequence (Q8BHY3 1-960): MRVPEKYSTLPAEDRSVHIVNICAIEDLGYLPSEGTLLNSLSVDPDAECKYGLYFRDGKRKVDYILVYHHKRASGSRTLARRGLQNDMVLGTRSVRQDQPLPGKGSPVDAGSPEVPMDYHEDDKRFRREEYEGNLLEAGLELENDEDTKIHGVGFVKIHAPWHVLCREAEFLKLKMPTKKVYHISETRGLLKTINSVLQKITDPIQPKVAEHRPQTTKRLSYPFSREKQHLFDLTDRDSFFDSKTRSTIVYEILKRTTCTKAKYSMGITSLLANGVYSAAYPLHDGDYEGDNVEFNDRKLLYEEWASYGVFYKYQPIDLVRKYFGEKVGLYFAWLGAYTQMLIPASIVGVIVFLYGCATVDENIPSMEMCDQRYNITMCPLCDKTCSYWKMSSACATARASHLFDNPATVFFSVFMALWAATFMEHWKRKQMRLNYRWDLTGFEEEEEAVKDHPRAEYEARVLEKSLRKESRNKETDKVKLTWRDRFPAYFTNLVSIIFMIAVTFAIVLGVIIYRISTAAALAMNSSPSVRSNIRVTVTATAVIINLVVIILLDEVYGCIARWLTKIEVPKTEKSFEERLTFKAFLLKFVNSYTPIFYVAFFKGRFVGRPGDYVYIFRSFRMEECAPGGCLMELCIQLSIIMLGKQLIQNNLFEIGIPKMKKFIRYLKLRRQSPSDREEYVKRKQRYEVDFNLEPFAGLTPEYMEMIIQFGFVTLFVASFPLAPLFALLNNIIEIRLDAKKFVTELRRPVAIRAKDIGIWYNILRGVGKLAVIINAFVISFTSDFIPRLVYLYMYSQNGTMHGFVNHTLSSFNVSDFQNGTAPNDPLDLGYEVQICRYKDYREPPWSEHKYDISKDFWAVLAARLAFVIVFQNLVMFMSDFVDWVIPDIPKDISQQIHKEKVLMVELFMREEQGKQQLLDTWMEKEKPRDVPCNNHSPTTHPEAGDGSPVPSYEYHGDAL
Protocol: (§1) For non‐stationary noise analysis (Heinemann and Conti, 1992; Tammaro and Ashcroft, 2007), 80–200 identical pulses to a test potential of −70 mV (filtered at 10 kHz and sampled at 50 kHz) were applied, and the mean response, I, was calculated. The variance, σ ^2, was computed from the average squared difference of consecutive traces. Background variance and current at 0 mV were subtracted, and the variance–mean plot was fit by (4) σ^2=iI−I^2/N,
(§2) with the single channel current, i, and the number of channels, N, as free parameters.
TMEM16A channels are almost instantaneously activated by changes in V m in the presence of high [Ca^2+]i (12.5 μM) (e.g. Adomaviciene et al., 2013). The lack of slow time‐dependent changes in current amplitude under these conditions makes non‐stationary noise analysis unfeasible. Thus, for experiments carried out in high [Ca^2+]i, stationary noise analysis was performed instead. In the absence or presence of a fixed [A9C]ext, 10 tracts (each 600 ms in duration) of stationary currents measured at +70 mV were low‐pass filtered at 10 kHz and sampled at 50 kHz. For each tract of current, the variance and mean were calculated. The variance–mean plots obtained in the absence and presence of various [A9C]ext were fitted simultaneously with Equation (4).
Stationary noise analysis was used to determine if A9C block manifests as a change in i and/or P o of TMEM16A. Experiments were conducted in the presence of 12.5 μM [Ca^2+]i to enable examination of the effect of A9C block in the absence of A9C‐mediated activation. Mean current and variance were measured in tracts of stationary currents recorded in the absence or presence of different [A9C]ext.
With this assumption in mind, the variance–mean plots were fitted with Equation (4) (Figure 4C). The fits yielded a single value of i of 0.27 ± 0.04 pA (n = 5). P o values arising from the fits were 0.78 ± 0.02 for control (n = 5), 0.30 ± 0.08 at 100 μM [A9C]ext (n = 5) and 0.04 ± 0.01 at 1000 μM [A9C]ext (n = 5) (Figure 4D).

Mouse TMEM16A [2] = biological target: T1, Mouse TMEM16A; assay: Non-stationary noise analysis of whole-cell TMEM16A tail currents; assay type: cell-based; conditions: −70 mV tail pulse, 300 nM [Ca2+]i; for P o: control 0.09 ± 0.02; for single channel current i: control 0.22 ± 0.01
Protocol: as §1, §2
Non‐stationary noise analysis was performed in the presence of 300 nM [Ca^2+]i during a tail pulse to −70 mV (Figure 8). In the absence of A9C, the i of TMEM16A was 0.22 ± 0.01 pA (n = 9). In the presence of 100 and 1000 μM [A9C]ext, i was 0.22 ± 0.01 pA (n = 9) and 0.23 ± 0.02 pA (n = 9) respectively. […] In the absence of A9C, the P o of TMEM16A was 0.09 ± 0.02 (n = 9) while in the presence of 100 and 1000 μM [A9C]ext, the P o was 0.41 ± 0.06 (n = 9) and 0.62 ± 0.06 (n = 9) respectively. Thus, extracellular A9C increased TMEM16A channel P o at a fixed V m and [Ca^2+]i.

For `O=C(O)c1c2ccccc2cc2ccccc12` [A9C, Anthracene‐9‐carboxylic acid], the P o (Mouse TMEM16A [1]; 100 μM [A9C]ext) was 0.30 ± 0.08, the P o (Mouse TMEM16A [1]; 1000 μM [A9C]ext) was 0.04 ± 0.01 and the “single channel current i” value (Mouse TMEM16A [1]; single value from simultaneous fit in absence and presence of [A9C]ext) was 0.27 ± 0.04 pA. The P o (Mouse TMEM16A [2]; 100 μM [A9C]ext) was 0.41 ± 0.06, the “single channel current i” value (Mouse TMEM16A [2]; 100 μM [A9C]ext) was 0.22 ± 0.01 pA and the P o (Mouse TMEM16A [2]; 1000 μM [A9C]ext) was 0.62 ± 0.06. The “single channel current i” value (Mouse TMEM16A [2]; 1000 μM [A9C]ext) was 0.23 ± 0.02 pA.
